Consider 2 molecules from patent US20250082650A1, “COMBINED USE OF MULTIKINASE INHIBITOR” (TRANSTHERA SCIENCES (NANJING), INC., priority 2021, published 2025).

Assay [1] deals with mouse colon cancer cell CT26.wt subcutaneous homograft tumor. The assay is described as follows: In vivo pharmacodynamic study, CT26.wt subcutaneous homograft tumor model, combination with PD-1 antibody. Conditions: CT26.wt tumor-bearing Balb/c mice, day 13; Compound 1 15 mg/kg PO QD; PD-1 antibody 10 mg/kg IP BIW; 1-14 days. The source says: Example 5: In Vivo Pharmacodynamic Study of the Compound of the Present Invention Combined with PD-1 Antibody on Mouse Colon Cancer Cell CT26.Wt Subcutaneous Homograft Tumor Model
Test sample: compound 1 of the present invention, having a structure shown above.
CT26.wt cells: mouse colon cancer cells from the Cell Bank of the Chinese Academy of Sciences.
Balb/c mice, 6- to 8-week-old, female, from Beijing Vital River Laboratory Animal Technology Co., Ltd.
PD-1 antibody: InVivoMAb anti-mouse PD-1, clone number: RMP1-14, company: BioXcell, Cat. No. BE0146.
CT26.wt cells were cultured in monolayer in vitro under the condition of an RPMI1640 medium supplemented with 10% heat-inactivated fetal bovine serum and 1% penicillin-streptomycin double antibody, and the culture was carried out at 37° C. and 5% CO2. […] When the cells were in the exponential growth phase, the cells were harvested, counted, and inoculated.
0.1 mL of a cell suspension containing about 1×10^6 CT26.wt cells (cells suspended in serum-free basal RPMI1640 medium) was inoculated subcutaneously into the left back skin of female Balb/c mice. […] Grouping method: Animals were weighed before administration and tumor volumes were measured. […]
Animals were monitored daily for health status and mortality, body weight and tumor volume were measured twice a week, and samples were collected after the last administration. […]

In assay [2] the test system is mouse B cell lymphoma A20 subcutaneous homograft tumor. The assay is described as follows: In vivo pharmacodynamic study, A20 subcutaneous homograft tumor model, combination with PD-L1 antibody. Conditions: A20 tumor-bearing Balb/c mice; Compound 1 7.5 mg/kg oral Qd; PD-L1 antibody 10 mg/kg IP Q3d; 19 days. On the procedure:
Example 7: In Vivo Pharmacodynamic Study of the Compound of the Present Invention Combined with PD-L1 on Mouse B Cell Lymphoma A20 Subcutaneous Homograft Tumor Model
A20 cells: mouse B cell lymphoma cells from ATCC.
Balb/c mice, 6- to 8-week-old, female, from Zhejiang Vital River Laboratory Animal Technology Co., Ltd.
(§1) PD-L1 antibody: InVivoMAb anti-mouse PD-L1 (B7-H1), clone number: 10F.9G2 (IgG2b), company: BioXcell, Cat. No. BE0101.
A20 cells were cultured in monolayer in vitro. When the cells were in the exponential growth phase, the cells were harvested, counted, and inoculated.
0.04 mL of a cell suspension containing about 6×10^5 A20 cells was inoculated subcutaneously into the back skin of female Balb/c mice. The mice were grouped for administration when the average volume of tumors reached approximately 60 mm^3. Grouping method: Animals were weighed before administration and tumor volumes were measured. Grouping was designed in blocks according to the tumor volume, with 8 mice per group.
Administration was carried out as in Table 4 below.
(§2) Animals were monitored daily for health status and mortality, body weight and tumor volume were measured twice a week, and samples were collected after the last administration. The therapeutic effect of tumor volume was evaluated by TGI %, and the evaluation was conducted as shown in Example 5.

Assay [3] deals with mouse colon cancer MC38 subcutaneous homograft tumor. The assay is described as follows: In vivo pharmacodynamic study, MC38 subcutaneous homograft tumor model, combination with PD-L1 antibody. The note with it: MC38 tumor-bearing C57BL/6 mice; Compound 1 7.5 mg/kg oral Qd; PD-L1 antibody 5 mg/kg IP Q3d; 25 days. The protocol:
Example 8: In Vivo Pharmacodynamic Study of the Compound of the Present Invention Combined with PD-L1 on Mouse Colon Cancer MC38 Subcutaneous Homograft Tumor Model
MC38 cells: mouse colon cancer cells from ATCC.
(§3) C57BL/6 mice, 6- to 8-week-old, female, from Shanghai Slac Laboratory Animal Co., Ltd.
as §1
MC38 cells were cultured in monolayer in vitro. When the cells were in the exponential growth phase, the cells were harvested, counted, and inoculated.
0.04 mL of a cell suspension containing about 3×10^5 MC38 cells was inoculated subcutaneously into the back skin of female C57BL/6 mice. The mice were grouped for administration when the average volume of tumors reached approximately 60 mm^3. Grouping method: Animals were weighed before administration and tumor volumes were measured. Grouping was designed in blocks according to the tumor volume, with 8 mice per group.
Administration was carried out as in Table 6 below.
as §2

In assay [4] the test system is IDO-1 expression in Hela cells. The assay is described as follows: Regulation of IDO protein levels in Hela cells (western blot). Conditions: interferon 50 ng/mL, co-incubation 16 h, 10-10000 nM, FIG. 2. The format is cell-based. The source says:
Example 6: Study on Regulation of IDO Protein Levels in Hela Cells by the Compound of the Present Invention
Cells: Hela Cells from Cobioer.
Reagents: DMEM medium, fetal bovine serum, penicillin, streptomycin, […] from SinoBiological, protein loading buffer, RIPA protein lysis buffer, protease inhibitor, BCA protein content assay kit, trihydroxymethyl aminomethane, sodium dodecyl sulfate, ammonium persulfate, 30% Acry-Bis solution, phosphate buffer, Tween 20, bovine serum albumin, GAPDH antibody (rabbit) from CST company, IDO-1 antibody (rabbit) from CST, anti-rabbit secondary antibody from CST, and protein marker.
Cell culture and plating: Hela cells were cultured in a DMEM medium containing 10% fetal bovine serum and 1% penicillin-streptomycin double antibody and incubated in a water-jacketed incubator at 37° C. and 5% CO2. Subculture treatment was carried out in a 1:4 ratio. When the cells were in the exponential growth phase, the cells were harvested, counted, plated at a density of 5×10^5 cells/well in a 6-well cell culture plate, and cultured overnight. […]
Protein content assay and sample configuration: Protein content in each well was measured by using a BCA kit and Nanodrop, and according to the detection result, a sample loading buffer and a lysis buffer were added to adjust to a system of […] of protein/10 μL for sample loading of Western Blot detection. […]
(In western blotting, separated proteins are transferred to a membrane and probed.)

Assay [5] relates to mouse pancreatic cancer Pan02 subcutaneous homograft tumor. The assay is described as follows: In vivo pharmacodynamic study, Pan02 subcutaneous homograft tumor model, combination with PD-L1 antibody. Conditions: Pan02 tumor-bearing C57BL/6 mice; Compound 1 7.5 mg/kg oral Qd; PD-L1 antibody 10 mg/kg IP Q3d; 25 days. On the procedure: Example 9: In Vivo Pharmacodynamic Study of the Compound of the Present Invention Combined with PD-L1 on Mouse Pancreatic Cancer Pan02 Subcutaneous Homograft Tumor Model
Pan02 cells: mouse pancreatic cancer cells from ATCC.
as §3
PD-L1 antibody: InVivoMAb anti-mouse PD-L1 (B7-H1), clone number: 10F.9G2 (IgG2b), company: BioXcell, Cat. No. BE0101
Pan02 cells were cultured in monolayer in vitro. When the cells were in the exponential growth phase, the cells were harvested, counted, and inoculated.
0.06 mL of a cell suspension containing about 1×10^6 Pan02 cells was inoculated subcutaneously into the back skin of female C57BL/6 mice. The mice were grouped for administration when the average volume of tumors reached approximately 60 mm^3. Grouping method: Animals were weighed before administration and tumor volumes were measured. Grouping was designed in blocks according to the tumor volume, with 7 mice per group.
Administration was carried out as in Table 8 below.
as §2

The test system of assay [6] is endometrial cancer. Conditions: PD-1 antibody combined with E7080, endometrial cancer, ASCO 2017 clinical data; cited from earlier work.

Broadly, the TGI is the reduction of tumour growth relative to the control group. Regarding `Cc1[nH]nc2c1N=C(c1ccccc1Cl)c1cnc(N3CCOCC3)cc1N2` [Compound 1, 4-(5-(2-chlorophenyl)-3-methyl-2,10-dihydropyrazolo[4,3-b]pyrido[4,3-e][1,4]diazepin-8-yl)morpholine], in assay [1], the “TGI (tumor volume inhibition rate)” value is on record as 48%. Moreover, the Tumor volume was 1150 ± 142 mm^3 in assay [1], 519 mm^3 in assay [2], 554 mm^3 in assay [3] and 921 mm^3 in assay [5]. Moreover, the values for the TGI in assay [2], in assay [3] and in assay [5] were 26%, 50% and 71%, respectively. Further, the “Expression of IDO-1 in Hela cells” value in assay [4] was “could effectively reduce the expression of IDO-1”.

As to `COc1cc2nccc(Oc3ccc(NC(=O)NC4CC4)c(Cl)c3)c2cc1C(N)=O` [Compound E7080], the Control rate in assay [6] is 96%.
